According to US20030077653A1, “Method for the identification of active site protease inactivators” (The University of Georgia Research Foundation, Inc., priority 2000, published 2003):
Residues, ends and D or L forms follow the SMILES beside them. *: point of attachment. AFC = O=c1cc(C(F)(F)F)c2ccc(N*)cc2o1; Cbz = O=C(OCc1ccccc1)*; Boc = CC(C)(C)OC(=O)*

Tests used:
Assay type in all cases: biochemical
[1] = test system: purified Taenia solium cysteine protease; test: Competitor assay: vehicle inhibition of cleavage of high Vmax AFC substrate cocktails (Step III); settings: purified protease; P = inhibition with first (1.4%) cocktail, M = inhibition with last (7.4%) cocktail
Procedure: (We employed “Vmax” here although Kcat could also be used). Due to the lower number of substrates, a percentage was not chosen for the “BOTTOM %” substrates. Alternately, all substrates which were not cleaved as determined by a value of 10 μM/hr or less, were chosen to be tested in this step for competitive ability. From this point forth, the term “vehicle” will represent low Vmax substrates that were capable of inhibiting cleavage of the percent cocktails. In this instance, we tested for “vehicles” which inhibited cleavage of the TOP 1.4% cocktail (they were delivered into the active site). Based upon our results from Step II, the top 1.4% cocktail was composed of Z-Phe-Arg-AFC, the highest cleaved substrate.
The experiment began with a competitor test between the noncleaved low Vmax substrates and the highest Vmax substrate, Z-Phe-Arg-AFC. Concentrations were varied between the low Vmax substrate and Z-Phe-Arg-AFC, as described above under “refinement of assay” until a relative inhibition profile was obtained.
The mixture was allowed to equilibrate for a period of 30 minutes. Finally, active purified enzyme was added to the tubes at a concentration which was always 50 times less than the concentration of the high and low Vmax substrates, in order to insure saturation conditions. This concentration varied from purification to purification and the amount added depended upon the yield and specific activity of the purified protease.
Positive controls were set up similarly as described for test controls, except that solvent was added in substitution for the low Vmax substrate (in a volume equal to the low Vmax volume addition). All of the substrates could be dissolved in dimethylsulfoxide (DMSO), and therefore, this was the solvent of choice. Negative controls were set up by adding the low Vmax and the high Vmax substrate in a tube without the protease. All potential non-proteolytic induced liberation of AFC was therefore controlled for in this tube (a feature which also insured stability of the AFC substrates, since these substrates will freely liberate AFC when unstable). A tube set will be established for this negative control.
All controls were set up in triplicate, and experiments repeated a minimum of five times. The assays were incubated at 37° C., for 18 hours overnight.
Percent inhibition was calculated as: [formula]
A 2.9% cocktail of the high Vmax substrates was made. This was composed of Z-FR-AFC and the second most cleaved substrate, Z-FAR-AFC. The vehicles promoted from the initial screenings above were again tested for competitive inhibition ability with the new cocktails. Their concentrations were set identically to those which were “fixed” in the previous protocols. […]

Taenia solium crude mix = test: Competitor assay with crude mix as source of the protease (Step III)
Procedure: In order to prepare the Taenia solium “crude mix” , dry frozen Taenia solium cysts were obtained from 6-12 month old cysticercotic pigs from villages in an endemic area of porcine cysticercosis in Mexico. Metacestodes were carefully dissected from the parasitized tissues, washed three times with PBS, and lyophilized. Parasite extracts were prepared by suspending 0.1 grams of dry frozen cysts in 10 ml of extraction buffer (0.4 M citrate, pH 4.9). The cysts were vortexed for three five-minute intervals with intermittent incubations (5 min) at 4 ° C. Particulate material was removed by centrifugation (20,000 x g, 120 min) and the resulting soluble fraction filtered ([…]). In assay buffers, the detectable amount of the crude mix, as described above, was employed and incubated with the target substrates.
One of the most intriguing findings in this experiment was that a highly similar inhibition pattern for the competitor assay was noted when the crude mix was employed as the source of the target protease. Although there were some variations in the effects of inhibitor dilution, the most highly ranked vehicles remained inhibitory consistently in comparison to the profile with the target protease. The relative profile and composition of the top tiers of vehicles was identical. Z-LLL-AFC, Z-LLY-AFC, Mu-LY-AFC, Boc-VPR-AFC, Z-SY-AFC, Z-RR-AFC, Z-FLF-AFC, Z-LGR-AFC consistently presented as the top eight vehicles (FIG. 5b), respectively, based upon their V values (Table 2). […] It was notable that the three vehicles had very similar V values. […] As was mentioned, this vehicle along with Z-LLL-AFC and Z-LLY-AFC, were consistently the most inhibitory vehicles. The V values of the most inhibitory vehicle series are shown below in Table 2. Again, a clear break between the first and second tier vehicles could be noted with the V value.

[2] = test system: purified Taenia solium cysteine protease; test: Screen of AFC-linked synthetic substrates for cleavage (Step II); settings: pH 4.9, 18 h, 37° C
Procedure: In this step, the most efficacious substrate for detection of the cysteine protease (high Kcat substrate) was determined in vitro along with those substrates which were not well cleaved (low kcat substrates). From this point forth, the following conditions refer to all assays: “assay buffer” refers to 0.4 M Citrate, pH 4.9 (the pH optima of the protease). Incubation time was 18 hours at 37° C. These conditions were determined by our preliminary data to be best for kinetic evaluation of the protease. […] The experiments were conducted in […] Borosilicate mini-culture tubes (Fisher Scientific), and a fluorometer (Turner) was employed for detection of AFC cleavage.
Approximately 1 ug (or a proteolytically detectable amount) of the purified target cysteine protease was incubated individually, with 1 μg of each of the available substrates in 500 μL of assay buffer. During this setup, the substrate was pre-incubated in the assay buffer for a short period of time (20 minutes) in order to reach an equilibrated status before the addition of the protease. Cleavage assessments were based upon the property of the protease to cleave synthetic peptide substrates linked at the C-terminus to 7-Amino-4-Trifluoromethyl Coumarin (AFC) as previously described. AFC linked tripeptides, dipeptides, and monopeptides, (with a variety of permutations at P3-P1) were available from Enzyme Systems Products (Livermore, CA), and were used as the source of the subset. Following incubation of enzyme preparations overnight (18 h, 37 ° C.) with peptide in assay buffer (Citrate, pH 4.9, supplemented with 0.01 M cysteine), free AFC concentrations were measured fluorometrically (excitation […]). The proteolytic cleavage released the AFC group, which was measurable as a free molecule by a standard fluorometer and converted into molar quantities, based upon a previously established standard curve. The simplicity of AFC detection by the fluorometer was a key factor which quickened and simplified the procedures.
In the assay, 1 ug of the purified Taenia cysteine protease was added to a saturating amount of Z-Phe-Arg-AFC (4×10^−5 M) in assay buffer. The experiment was conducted in triplicate and repeated at least 5 times until we were certain that variability in AFC cleavage was not statistically significant.
Vmax was calculated for the cleavage of substrates by the purified target protease and Vmax was calculated for substrates cleaved by the crude mix protease using conventional kinetic modeling calculations already described in the art.

[3] = test system: purified Taenia solium cysteine protease; test: Protease inactivator inhibition assay (EC100, Ki; Step VII)
Text: Once the protease inactivators were synthesized in the organic laboratory, they were to be tested for the lowest efficacious concentrations at which they induced 100% inhibition of the target protease (EC100). The top percent cocktail that was employed in the final vehicle selection step of Step III was employed as the source of competition for the inhibitors. In this case, this was the […] which was comprised of Z-FR-AFC, Z-FAR-AFC, Z-AP-AFC, Z-AAK-AFC, and Z-VLR-AFC. The final result would be a ranking of transition state candidate protease inactivators with a high ranking directly correlating to a low ECIoo value. The following steps describe the assay:
Step A: Initial Screening. To set up the test control, each protease inactivator was first incubated with the 5% cocktail (which provided the final differentiation of vehicles in Step III). To begin with, the protease inactivator was incubated at a concentration of 3×10^−9M in 500 μl of assay buffer (0.2 M Citrate, pH 4.9 supplemented with 10mM L-cysteine). This concentration was determined, after a series of inhibitor dilutions identified, to be the best inhibitor concentration at which a differentiation in inhibitor potential could be noted. Next, a concentration equal to 4×10^−5M for each of the individual cocktail components, was added to the mix. The components were allowed to equilibrate for a period of 30 minutes. […]
Percent inhibition was calculated as: [formula] […]
Step C: Determination ofInhibitor Ki and mode of inhibition, and re-ranking of EC100 list with inhibitor Ki. Ki of each of the top ranked protease inactivators, based upon low EC100 values, was assessed next for the top 5 EC100 inhibitors.
In order to determine Ki, all of the high Vmax cocktail substrates were employed for Ki determination (since Ki of the inhibitor for the enzyme is the same regardless of the substrate). To insure the highest accuracy, Ki was to be determined upon a minimum of at least three of the high Kcat substrates. […]

Compound: CC(C)C[C@H](NC(=O)OC(C)(C)C)C(=O)NCC(=O)N[C@@H](CCCNC(=N)N)C(=O)Nc1ccc2c(C(F)(F)F)cc(=O)oc2c1 [B-LGR-AFC] (Boc-Leu-Gly-Arg-{AFC})
- V Value (vehicle inhibition quotient, V=P*M) [1]: 0.07
- V Value (vehicle inhibition quotient, V=P*M) (Taenia solium crude mix): 0.02

Compound: CC(C)[C@H](NC(=O)OC(C)(C)C)C(=O)N1CCC[C@H]1C(=O)N[C@@H](CCCNC(=N)N)C(=O)Nc1ccc2c(C(F)(F)F)cc(=O)oc2c1 [B-VPR-AFC, Boc-Val-Pro-Arg-AFC] (Boc-Val-Pro-Arg-{AFC})
- cleavage as substrate (Vmax) [2]: noncleavable

Compound: CC(C)C[C@H](NC(=O)[C@H](Cc1ccccc1)NC(=O)OCc1ccccc1)C(=O)N[C@@H](Cc1ccccc1)C(=O)Nc1ccc2c(C(F)(F)F)cc(=O)oc2c1 [Z-FLF-AFC] (Cbz-Phe-Leu-Phe-{AFC})
- V Value (vehicle inhibition quotient, V=P*M) [1]: 0.100
- V Value (vehicle inhibition quotient, V=P*M) (Taenia solium crude mix): 0.10

Compound: O=C(N[C@@H](CO)C(=O)N[C@@H](Cc1ccc(O)cc1)C(=O)Nc1ccc2c(C(F)(F)F)cc(=O)oc2c1)OCc1ccccc1 [Z-SY-AFC] (Cbz-Ser-Tyr-{AFC})
- V Value (vehicle inhibition quotient, V=P*M) [1]: 0.090
- V Value (vehicle inhibition quotient, V=P*M) (Taenia solium crude mix): 0.09

Compound: NC(N)=NCCC[C@H](NC(=O)OCc1ccccc1)C(=O)N[C@@H](CCCN=C(N)N)C(=O)Nc1ccc2c(C(F)(F)F)cc(=O)oc2c1 [Z-RR-AFC] (Cbz-Arg-Arg-{AFC})
- V Value (vehicle inhibition quotient, V=P*M) (Taenia solium crude mix): 0.09

Compound: CC(C)C[C@@H](/C=C/S(C)(=O)=O)NC(=O)[C@H](CC(C)C)NC(=O)[C@H](CC(C)C)NC(=O)OCc1ccccc1 [Z-LLL-VS, Z-Leu-Leu-Leu-vinylsulfone]
- ranking of protease inactivators by inhibition / EC100 [3]: top inhibitors

Compound: CC(C)C[C@H](NC(=O)OCc1ccccc1)C(=O)NCC(=O)N[C@@H](CCCNC(=N)N)C(=O)Nc1ccc2c(C(F)(F)F)cc(=O)oc2c1 [Z-LGR-AFC, Z-Leu-Gly-Arg-AFC] (Cbz-Leu-Gly-Arg-{AFC})
- cleavage as substrate (Vmax) [2]: noncleavable

Compound: NC(N)=NCCCC(NC(=O)C(Cc1ccccc1)NC(=O)OCc1ccccc1)C(=O)Nc1ccc2c(C(F)(F)F)cc(=O)oc2c1 (stereo not drawn) [Z-Phe-Arg-AFC] (Cbz-Phe-Arg-{AFC}; configuration not given here)
- cleavage as substrate (Vmax) [2]: highest Vmax
